# Measurements published in patent publication US8153785B2, “Stabilizing ligands for regulation of protein function” (Cheminpharma LLC, priority 2009, dated 2012).
# Biological target: T1, L106-tsLuc (FKBP L106P destabilizing domain fused to luciferase) in HCT116 cells (Homo sapiens, UniProt P62942, F37V)
# T1 construct: expressed in transfected cells; host or cells: HCT116
# Assay: Luciferase stabilization assay in HCT116 cells stably transfected with L106-tsLuc
# Format: cell-based
# Settings: 24 hour incubation, 3-fold dilutions, 10 μM to 12 nM, BrightGlo readout, read-out: luciferase activity, expressed in IC50 values
# Procedure: The compounds were assayed for their ability to bind to the destabilizing domain of the protein according the following procedure:
# HCT116 cells stably transfected with L106-tsLuc were cultured in DMEM media containing 10% fetal bovine serum. 7,000 cells/well were seeded in 100 μL of DMEM/10% FBS media in a 96-well plate and incubated overnight at 37° C. in a humidified, 5% CO2 incubator. Media was replaced with fresh 100 μL of fresh DMEM/10% FBS media containing various concentrations of Shield-1, and the compounds of Example 6 (Ic), and Example 9 (Id) Compounds were added at 3-fold dilutions, concentrations ranging from 10 μM to 12 nM. After 24 hour incubation with the compounds at 37° C. in a humidified, 5% CO2 incubator, luciferase activity was measured in a luminometer after the addition of 100 μL/well BrightGlo reagent (Promega).
# T1 sequence (P62942 with tags, fused parts or gaps F37V limits assumed): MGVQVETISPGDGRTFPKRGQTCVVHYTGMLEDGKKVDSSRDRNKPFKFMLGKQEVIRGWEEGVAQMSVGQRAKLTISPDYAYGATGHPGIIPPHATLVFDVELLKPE
row,SMILES,IC50 [nM]
1,CCN(C(=O)N1CCCC[C@H]1C(=O)N[C@H](CCc1ccc(OC)c(OC)c1)c1cccc(OCCN2CCOCC2)c1)c1ccccc1 [Example 9 (Id)],< 10000
2,CC[C@H](C(=O)N1CCCC[C@H]1C(=O)N[C@H](CCc1ccc(OC)c(OC)c1)c1cccc(OCCN2CCOCC2)c1)c1cc(OC)c(OC)c(OC)c1 [Example 6 (Ic)],< 100
3,"CC[C@H](C(=O)N1CCCC[C@H]1C(=O)OC(CCc1ccc(OC)c(OC)c1)c1cccc(OCCN2CCOCC2)c1)c1cc(OC)c(OC)c(OC)c1 (stereo partly drawn) [Shield-1, reference compound]",< 10
